Results on seven compounds are retold here after patent publication US20240400591A1 (Jacobio Pharmaceuticals Co., Ltd., priority 2021, published 2024).

In one test the test system is NUGC4 (P53 WT). Kind of test: Cell viability assay (CellTiter-Glo, 6 days), NUGC4. It counts as cell-based. As to conditions: Homo sapiens, NUGC-4, 144 h; cell viability, 6 days, CellTiter-Glo; read-out: NUGC4 (P53 WT) IC50. An outline of the steps:
(§1)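 After a 6-day compound exposure following overnight plating, ATP luminescence (CellTiter-Glo) gave percent viability relative to DMSO-treated cells and cell-free medium controls. IC50 = concentration at 50% viability, from 4-parameter logistic or Excel fit.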

The subject of test [1] is NUGC-3_P53_Luc single clonal cell line (p53 Y220C). As to the kind of experiment: Reporter gene assay (p53 RE luciferase). It is filed as cell-based. As to conditions: Homo sapiens, NUGC-3; luciferase reporter, 6 hours, normalized to Ref-1a (10 μM) high control; read-out: p53(Y220C)_NUGC-3 EC50. The gist of the method:
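Luminescence normalised to DMSO-only (0%) and 10 μM Ref-1a (100%) wells gives % activity, fitted by 4-parameter logistic or Excel to yield EC50 at 50%. Reporter line: NUGC-3 with p53 response element-luc2P, compound-treated 6 h at 37 °C.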

Another test relates to NUGC3 (P53 Y220C). As to the kind of experiment: Cell viability assay (CellTiter-Glo, 6 days), NUGC3. As to conditions: Homo sapiens, NUGC-3, 144 h; cell viability, 6 days, CellTiter-Glo; read-out: NUGC3 (P53 Y220C) IC50. It counts as cell-based. An outline of the steps:
as §1

Test [2] deals with T1, His-p53 Y220C (94-294) protein (Homo sapiens, UniProt P04637, Y220C).
T1 construct: His-p53 Y220C (94-294) protein
Kind of test: In vitro DNA binding assay (HTRF). The note with it: % activation normalized to 2 μM Ref-1a high control. It is filed as biochemical.

On to `COc1cc(P(C)(C)=O)ccc1NCC#Cc1sc2c(N[C@@H]3CCN(C4CCCCOC4)C[C@@H]3F)cccc2c1CC(F)(F)F` (stereo partly drawn) [Example 185, (4-((3-(7-(((3S,4R)-3-fluoro-1-(oxepan-3-yl)piperidin-4-yl)amino)-3-(2,2,2-trifluoroethyl)benzo[b]thiophen-2-yl)prop-2-yn-1-yl)amino)-3-methoxyphenyl)dimethylphosphine oxide], for which the figures for the concentration for half-maximal inhibition (IC50) in the test on NUGC4 (P53 WT) and in the test with NUGC3 (P53 Y220C) were 2790 nM and 880 nM, respectively. Moreover, the EC50 worked out at 110 nM in test [1] and 54 nM in test [2].

In the case of `CN1CC[C@@H](Nc2cccc3c(CC(F)(F)F)c(C#CCNc4ccc(P(C)(C)=O)c5c4OCC5)sc23)[C@@H](F)C1` [Example 187, (7-((3-(7-(((3S,4R)-3-fluoro-1-methylpiperidin-4-yl)amino)-3-(2,2,2-trifluoroethyl)benzo[b]thiophen-2-yl)prop-2-yn-1-yl)amino)-2,3-dihydrobenzofuran-4-yl)dimethylphosphine oxide], the IC50 in the test on NUGC4 (P53 WT) stood at 5320 nM; with NUGC3 (P53 Y220C) it was 290 nM. For the same compound, the EC50 was determined as 50 nM in test [1] and 33 nM in test [2].

In the case of `COc1cc(P(C)(C)=O)ccc1NCC#Cc1sc2c(NC3CC4(C3)CN(C)C4)cccc2c1CC(F)(F)F` [Example 189, (3-methoxy-4-((3-(7-((2-methyl-2-azaspiro[3.3]heptan-6-yl)amino)-3-(2,2,2-trifluoroethyl)benzo[b]thiophen-2-yl)prop-2-yn-1-yl)amino)phenyl)dimethylphosphine oxide], the figures for the IC50 with NUGC4 (P53 WT) and with NUGC3 (P53 Y220C) were 8670 nM and 3640 nM, respectively. Moreover, the EC50 worked out at 700 nM in test [1] and 45 nM in test [2].

As for `COc1cc(N2CCOCC2=O)ccc1NCC#Cc1sc2c(NC3CCN(C)CC3F)cccc2c1CC(F)(F)F` (stereo not shown) [Example 192, 4-(4-((3-(7-((3-fluoro-1-methylpiperidin-4-yl)amino)-3-(2,2,2-trifluoroethyl)benzo[b]thiophen-2-yl)prop-2-yn-1-yl)amino)-3-methoxyphenyl)morpholin-3-one], the IC50 with NUGC4 (P53 WT) came to 7610 nM; with NUGC3 (P53 Y220C) it was 1190 nM. For the same compound, the EC50 came out at 130 nM in test [1] and 34 nM in test [2].

With `CN1CC[C@@H](Nc2cccc3c(CC(F)(F)F)c(C#CCNc4ccc(P(C)(C)=O)c5c4OCCO5)sc23)[C@@H](F)C1` [Example 193, (8-((3-(7-(((3S,4R)-3-fluoro-1-methylpiperidin-4-yl)amino)-3-(2,2,2-trifluoroethyl)benzo[b]thiophen-2-yl)prop-2-yn-1-yl)amino)-2,3-dihydrobenzo[b][1,4]dioxin-5-yl)dimethylphosphine oxide], the figures for the IC50 in the test with NUGC4 (P53 WT) and with NUGC3 (P53 Y220C) were 18600 nM and 1220 nM, respectively. The EC50 in test [1] was 130 nM; in test [2], 113 nM.

As to `COc1c(NCC#Cc2sc3c(N[C@@H]4CCN(C)C[C@@H]4F)cccc3c2CC(F)(F)F)ccc(P(C)(C)=O)c1F` [Example 194, (2-fluoro-4-((3-(7-(((3S,4R)-3-fluoro-1-methylpiperidin-4-yl)amino)-3-(2,2,2-trifluoroethyl)benzo[b]thiophen-2-yl)prop-2-yn-1-yl)amino)-3-methoxyphenyl)dimethylphosphine oxide], the half-inhibitory concentration (IC50) turned out to be 12200 nM with NUGC4 (P53 WT) and 1750 nM in the test with NUGC3 (P53 Y220C). Besides, the values for the EC50 in test [1] and in test [2] were 150 nM and 33 nM, respectively.

Take `CN1CC[C@@H](Nc2cccc3c(CC(F)(F)F)c(C#CCNc4ccc(P(C)(C)=O)c5ccoc45)sc23)[C@@H](F)C1` [Example 198, (7-((3-(7-(((3S,4R)-3-fluoro-1-methylpiperidin-4-yl)amino)-3-(2,2,2-trifluoroethyl)benzo[b]thiophen-2-yl)prop-2-yn-1-yl)amino)benzofuran-4-yl)dimethylphosphine oxide]: the IC50 in the test with NUGC4 (P53 WT) was determined as 5100 nM; in the test on NUGC3 (P53 Y220C) it was 260 nM. In addition, the half-maximal effective concentration (EC50) in test [1] was 200 nM; in test [2], 43 nM.
